Molecular target: EGFR (Homo sapiens, UniProt P00533)
Experiment: Biochemical EGFR assay (ELISA, A431 cell lysate)
Set-up: A431 cell lysate (Screening Lab, SUGEN, Inc.); host or cells: A431
Details: read-out: bio EGFr IC50
Summary of the method: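 EGFR captured from A431 cell lysate onto anti-EGFR-coated plates, then incubated with test compound for 30 min at room temperature. Tyrosine phosphorylation with ATP/MnCl2 was stopped with EDTA after 5 min and detected by anti-phosphotyrosine ELISA with peroxidase/ABTS read-out.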

EGFR, sequence (P00533 25-1210): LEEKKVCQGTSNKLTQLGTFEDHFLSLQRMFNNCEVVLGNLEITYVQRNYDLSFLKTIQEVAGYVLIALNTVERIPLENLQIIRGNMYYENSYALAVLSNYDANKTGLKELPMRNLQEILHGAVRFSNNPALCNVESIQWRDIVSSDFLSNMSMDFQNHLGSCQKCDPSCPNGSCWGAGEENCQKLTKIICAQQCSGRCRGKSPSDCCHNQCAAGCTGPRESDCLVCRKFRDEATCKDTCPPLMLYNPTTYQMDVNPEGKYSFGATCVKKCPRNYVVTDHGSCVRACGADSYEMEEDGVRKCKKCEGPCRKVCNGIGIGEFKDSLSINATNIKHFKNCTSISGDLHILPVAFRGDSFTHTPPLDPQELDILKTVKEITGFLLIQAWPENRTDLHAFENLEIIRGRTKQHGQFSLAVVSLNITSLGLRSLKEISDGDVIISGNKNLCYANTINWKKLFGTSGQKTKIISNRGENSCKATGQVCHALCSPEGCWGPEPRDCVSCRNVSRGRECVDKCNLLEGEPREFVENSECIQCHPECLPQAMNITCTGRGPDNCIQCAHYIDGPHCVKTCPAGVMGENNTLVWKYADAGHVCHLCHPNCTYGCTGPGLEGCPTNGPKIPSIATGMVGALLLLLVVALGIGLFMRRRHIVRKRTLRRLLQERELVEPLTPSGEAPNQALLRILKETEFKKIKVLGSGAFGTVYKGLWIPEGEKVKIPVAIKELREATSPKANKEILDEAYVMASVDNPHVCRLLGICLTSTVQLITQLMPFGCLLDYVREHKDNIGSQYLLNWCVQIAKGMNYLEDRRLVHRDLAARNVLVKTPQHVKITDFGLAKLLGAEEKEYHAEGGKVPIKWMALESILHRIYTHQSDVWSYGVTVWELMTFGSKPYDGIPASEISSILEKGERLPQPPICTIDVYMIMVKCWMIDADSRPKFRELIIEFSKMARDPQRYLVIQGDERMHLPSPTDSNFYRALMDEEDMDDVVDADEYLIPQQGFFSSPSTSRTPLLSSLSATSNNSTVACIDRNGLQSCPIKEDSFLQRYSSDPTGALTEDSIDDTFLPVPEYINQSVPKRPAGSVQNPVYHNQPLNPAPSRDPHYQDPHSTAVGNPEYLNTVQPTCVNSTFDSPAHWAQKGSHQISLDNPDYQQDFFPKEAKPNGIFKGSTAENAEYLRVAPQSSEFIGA

Structure (SMILES)	IC50
COc1ccccc1-c1ccc2c(c1)NC(=O)/C2=C\c1[nH]c(C)cc1CCC(=O)O [Example 109, 3-{2-[6-(2-Methoxyphenyl)-2-oxo-1,2-dihydroindol-3-ylidenemethyl]-5-methyl-1H-pyrrol-3-yl}-propionic acid]	> 100 µM
CCOC(=O)c1c(C)[nH]c(/C=C2\C(=O)Nc3cc(-c4ccccc4OC)ccc32)c1CCC(=O)O [Example 110, 4-(2-Carboxyethyl)-5-[6-(2-methoxyphenyl)-2-oxo-1,2-dihydro-indol-3-ylidenemethyl]-2-methyl-1H-pyrrol-3-yl-carboxylic acid ethyl ester]	> 100 µM

Second part, the compound after the results:

IC50	Structure (SMILES)
> 100 µM	Cc1cc(CCC(=O)O)c(/C=C2\C(=O)Nc3ccc(Cl)cc32)[nH]1 [Example 111, 3-[2-(5-Chloro-2-oxo-1,2-dihydroindol-3-ylidenemethyl)-5-methyl-1H-pyrrol-3-yl]propionic acid]
> 100 µM	O=C1Nc2ccc(Br)cc2/C1=C/c1cc2ccccc2[nH]1 [Example 165, 5-Bromo-3-(1H-indol-2-ylmethylene)-1,3-dihydro-indol-2-one]
> 100 µM	Cc1cccc2c1/C(=C/c1cc3ccccc3[nH]1)C(=O)N2 [Example 166, 3-(1H-indol-2-ylmethylene)-4-methyl-1,3-dihydro-indol-2-one]
